This note sets out measurements from ChEMBL document CHEMBL5260850, “The exploration of aza-quinolines as hematopoietic prostaglandin D synthase (H-PGDS) inhibitors with low brain exposure” (Bioorg Med Chem, 2020).

Data set [1] can be described thus: Free AUC (0 to last) in mdx mouse administered orally 10 mins prior to unilateral eccentric contraction and QD for 43 days thereafter. In kind it is ADME. Particulars: in vivo, po, 1032 h, time 43 day.
The next data set deals with Albumin (Homo sapiens, UniProt P02768). Description: Protein binding in human serum albumin by HPLC analysis. The data set is classed as ADME, cell-free. Particulars: read-out: PB (converted).
Chain of Albumin (P02768 whole entry): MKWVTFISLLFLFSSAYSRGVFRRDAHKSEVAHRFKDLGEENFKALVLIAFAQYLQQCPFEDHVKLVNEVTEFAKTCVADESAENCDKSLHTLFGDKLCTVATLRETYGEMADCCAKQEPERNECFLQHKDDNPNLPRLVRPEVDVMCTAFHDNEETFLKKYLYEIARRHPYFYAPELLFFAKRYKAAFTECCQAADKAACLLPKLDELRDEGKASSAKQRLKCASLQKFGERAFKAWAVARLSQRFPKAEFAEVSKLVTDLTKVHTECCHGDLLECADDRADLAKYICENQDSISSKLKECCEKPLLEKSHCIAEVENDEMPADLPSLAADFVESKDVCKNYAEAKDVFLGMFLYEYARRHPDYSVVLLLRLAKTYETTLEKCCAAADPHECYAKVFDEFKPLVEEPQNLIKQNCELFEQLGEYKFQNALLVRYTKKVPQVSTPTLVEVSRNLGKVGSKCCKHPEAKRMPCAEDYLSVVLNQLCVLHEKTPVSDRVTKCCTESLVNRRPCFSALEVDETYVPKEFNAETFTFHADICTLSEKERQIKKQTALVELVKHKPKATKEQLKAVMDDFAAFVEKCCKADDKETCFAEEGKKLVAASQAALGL
Data set [2] in a line: Volume of distribution at steady state in mouse at 1 mg/kg, iv. In kind it is ADME, organism-based. The conditions noted are these: in vivo, read-out: Vdss.
Data set [3] is described as follows: Toxicity in Wistar Han rat assessed as morphological changes in thymus at 30 mg/kg/day, po administered QD for 7 days by microscopic analysis. In kind it is organism-based. Particulars: in vivo, 168 h, time 7 day.

`CC(C)(O)[C@H]1CC[C@H](NC(=O)c2cnc3nc(C4CC4)ccc3c2)CC1`: in data set [1], the fAUClast came to 200 ng·h/mL. In addition, the fraction unbound on Albumin is 0.2. Besides, the Vd in data set [2] is 1.6 L/kg. Besides, the Activity result in data set [3] was “Non-Toxic”.
